In data set [1] the target is T1, Casein kinase I isoform delta (Homo sapiens, UniProt P48730). The conditions noted are these: at 10 µM.
Target sequence in this assay (P48730 whole entry, looked up, canonical isoform): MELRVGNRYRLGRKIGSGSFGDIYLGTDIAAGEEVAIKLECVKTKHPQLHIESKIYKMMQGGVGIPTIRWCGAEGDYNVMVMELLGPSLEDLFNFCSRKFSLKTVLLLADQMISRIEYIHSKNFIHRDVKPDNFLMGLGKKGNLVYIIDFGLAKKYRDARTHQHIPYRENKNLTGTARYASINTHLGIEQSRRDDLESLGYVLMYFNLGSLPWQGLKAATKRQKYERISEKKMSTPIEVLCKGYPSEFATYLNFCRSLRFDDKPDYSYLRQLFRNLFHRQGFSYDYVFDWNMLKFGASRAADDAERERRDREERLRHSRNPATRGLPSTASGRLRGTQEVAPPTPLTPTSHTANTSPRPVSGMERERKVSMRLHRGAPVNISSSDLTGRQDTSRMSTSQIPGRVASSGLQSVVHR
Description: Inhibition of human recombinant CK-1delta using casein as substrate at 10 uM after 60 mins by Kinase-Glo assay relative to control
The target in data set [2] is T1, Casein kinase I isoform delta. Nature of the data set: Inhibition of human recombinant CK-1delta using casein as substrate after 60 mins by Kinase-Glo assay. Background: Kinase-Glo measures the ATP left after a reaction by luminescence.
Target sequence in this assay (P48730 whole entry, canonical isoform): as the sequence (P48730 whole entry, looked up, canonical isoform) above
The conditions of data set [3]: pampa.
Description: Permeability of the compound by PAMPA
Data set [4] concerns the target T1, Casein kinase I isoform delta. Description: Competitive inhibition of human recombinant CK-1delta using casein as substrate at 0.25 to 0.5 uM by Lineweaver-Burk plot analysis in presence of ATP.
Target sequence in this assay (P48730 whole entry, looked up, canonical isoform): as above

Activity calls are given as the source filed them. No cut-off for these calls is given here.

The inhibition is how much of the control response was suppressed. One may read the IC50 as the concentration that inhibits the measured activity by half.

`CCOc1ccc2nc(NC(=O)Cc3cc(OC)c(OC)c(OC)c3)sc2c1` registered an inhibition in data set [1] greater than 60%.
Same read-out and setting: as for `COc1ccc2nc(NC(=O)Cc3cccc(Cl)c3)sc2c1`, the figure is greater than 60%.
As to `CCOC(=O)c1sc(NC(=O)CNC(=O)c2ccccc2)nc1C`, in data set [2], the IC50 was found to be 7.45 µM.
`COc1ccccc1CC(=O)Nc1nc2ccc(C(F)(F)F)cc2s1` yielded a permeability in data set [3] of 11.2 ×10⁻⁶ cm/s. The compound further came in with an inhibition in data set [1] greater than 60%.
Turning to `CCOc1ccc2nc(NC(=O)Cc3ccc(OC)cc3)sc2c1`, the inhibition in data set [1] is greater than 60%.
`CCOc1ccc2nc(NC(=O)Cc3ccc(Cl)c(Cl)c3)sc2c1`: in data set [1], the inhibition is greater than 60%.
Turning to `COc1ccc2nc(NC(=O)Cc3ccccc3OC)sc2c1`, in data set [1], the inhibition is greater than 60%.
Same read-out and setting: as for `COc1ccc(OC)c(CC(=O)Nc2nc3ccc(C(F)(F)F)cc3s2)c1`, the figure is greater than 60%; as for `COc1ccc(CC(=O)Nc2nc3ccc(OC)cc3s2)cc1`, greater than 60%.
In data set [3], `COc1cc(CC(=O)Nc2nc3ccc(OC(F)(F)F)cc3s2)cc(OC)c1OC` displayed a permeability of 2.6 ×10⁻⁶ cm/s. The inhibition in data set [1] was greater than 60%.
`CC(=O)c1sc(NC(=O)Cc2cccc(Cl)c2)nc1C` returned an inhibition in data set [1] greater than 60%. Also, the 50% inhibitory concentration (IC50) in data set [2] was determined as 1.12 µM.
Take `COc1ccccc1CC(=O)Nc1nc2ccc(F)cc2s1`: the inhibition in data set [1] is greater than 60%.
Same read-out and setting: as for `COc1ccc2nc(NC(=O)Cc3ccc(Cl)c(Cl)c3)sc2c1`, the figure is greater than 60%.
The compound `O=C(Cc1ccc(Cl)cc1)Nc1nc2ccc(C(F)(F)F)cc2s1` registered a permeability in data set [3] of 9.6 ×10⁻⁶ cm/s. The same compound returned an inhibition in data set [1] greater than 60%.
Turning to `CCOC(=O)c1sc(NC(=O)CNC(=O)CC(c2ccccc2)c2ccccc2)nc1C`, in data set [2], the IC50 was determined as 3.79 µM.
Consider `COc1cc(OC)c(C=C2C(=O)Nc3ccccc32)c(OC)c1`, for which, in data set [4], the inhibition result is “Active”.
With `CNCCCN1c2ccccc2CCc2ccccc21` [DESIPRAMINE], the permeability in data set [3] was determined as 14.6 ×10⁻⁶ cm/s.
`COc1ccccc1CC(=O)Nc1nc2ccc(C)cc2s1` came in with an inhibition in data set [1] greater than 60%.
In data set [1], `COc1ccc2nc(NC(=O)Cc3ccccc3Cl)sc2c1` yielded an inhibition greater than 60%.
On to `O=C(Cc1ccccc1)Nc1nc2ccc(C(F)(F)F)cc2s1`, for which, in data set [3], the permeability was 4.4 ×10⁻⁶ cm/s. Besides, in data set [1], the inhibition was greater than 60%.
On to `CN(C)CCCN1c2ccccc2Sc2ccccc21` [PROMAZINE], for which the permeability in data set [3] came to 12.7 ×10⁻⁶ cm/s.
Turning to `CCOc1ccc2nc(NC(=O)C(c3ccccc3)c3ccccc3)sc2c1`, in data set [1], the inhibition is greater than 60%.
`O=C(Cc1ccc(Cl)cc1)Nc1nc2ccccc2o1` showed an inhibition in data set [1] greater than 60%. Moreover, in data set [2], the IC50 is 4.11 µM.
With `O=C(Cc1ccccc1)Nc1nc2ccccc2s1`, the inhibition in data set [1] is greater than 60%.
`CS(=O)(=O)c1ccc2nc(NC(=O)Cc3cccs3)sc2c1`: the concentration for half-maximal inhibition (IC50) in data set [2] stood at 2.69 µM.
In data set [1], `CCOc1ccc2nc(NC(=O)Cc3cccc(OC)c3)sc2c1` gave an inhibition greater than 60%.
Turning to `O=C(Cc1ccc(Cl)c(Cl)c1)Nc1nc2ccc(C(F)(F)F)cc2s1`, in data set [3], the permeability came to 1.4 ×10⁻⁶ cm/s. For the same compound, the inhibition in data set [1] was greater than 60%.
Turning to `CCOc1ccc2nc(NC(=O)Cc3ccccc3Cl)sc2c1`, in data set [1], the inhibition is greater than 60%.
Compound `COc1cccc(CC(=O)Nc2nc3ccc(C(F)(F)F)cc3s2)c1` displayed a permeability in data set [3] of 11.2 ×10⁻⁶ cm/s. Besides, the inhibition in data set [1] is greater than 60%.
Compound `CCOC(=O)c1sc(NC(=O)COCc2ccccc2)nc1C` yielded an inhibition in data set [1] greater than 60%. Further, in data set [2], the IC50 was found to be 7.38 µM.
`O=C(Cc1cccc(Cl)c1)Nc1nc2ccc(C(F)(F)F)cc2s1` returned a permeability in data set [3] of 11.2 ×10⁻⁶ cm/s. Further, in data set [1], the inhibition was greater than 60%.
On to `COc1ccc2nc(NC(=O)Cc3ccc(Cl)cc3)sc2c1`, for which, in data set [1], the inhibition is greater than 60%.
In the case of `CCOC(=O)c1sc(NC(=O)CNC(=O)c2ccc(N3CCOCC3)cc2)nc1C`, the IC50 in data set [2] stood at 9.31 µM.
On to `COc1ccc(CC(=O)Nc2nc3ccc(C(F)(F)F)cc3s2)cc1`, for which, in data set [3], the permeability was found to be 14.6 ×10⁻⁶ cm/s. Further, the inhibition in data set [1] is greater than 60%.
Take `COc1ccccc1CC(=O)Nc1nc2ccc(Cl)cc2s1`: in data set [1], the inhibition was greater than 60%.
On the same count and under the same terms, for `O=C(CC(c1ccccc1)c1ccccc1)Nc1nc2ccccc2s1` the value was greater than 60%.
The same measure, in the same setting: for `O=C(Cc1ccc(Cl)c(Cl)c1)Nc1nc2ccc(OC(F)(F)F)cc2s1` the value was greater than 60%.
On to `COc1cc(CC(=O)Nc2nc3ccc(C(F)(F)F)cc3s2)cc(OC)c1OC`, for which the permeability in data set [3] is 7.2 ×10⁻⁶ cm/s. In data set [1], the inhibition was greater than 60%.
Take `COc1cccc(CC(=O)Nc2nc3ccc(OC)cc3s2)c1`: the inhibition in data set [1] is greater than 60%.
Turning to `O=C(Cc1cccc(C(F)(F)F)c1)Nc1nc2ccc(C(F)(F)F)cc2s1`, in data set [3], the permeability was 6.4 ×10⁻⁶ cm/s. In data set [1], this compound showed an inhibition greater than 60%.
Compound `CN1C(C(=O)Nc2ccccn2)=C(O)c2ccccc2S1(=O)=O` [PIROXICAM] registered a permeability in data set [3] of 0.5 ×10⁻⁶ cm/s.
In data set [1], `O=C(Nc1nc2ccccc2s1)C(c1ccccc1)c1ccccc1` yielded an inhibition greater than 60%.
Regarding `CCOC(=O)c1sc(NC(=O)CNC(=O)Cc2ccccc2)nc1C`, in data set [2], the half-maximal inhibitory concentration (IC50) came out at 10.1 µM.
As for `CCOc1ccc2nc(NC(=O)Cc3ccc(Cl)cc3)sc2c1`, the inhibition in data set [1] is greater than 60%. The half-inhibitory concentration (IC50) in data set [2] stood at 1.11 µM.
In data set [1], `COc1ccc(NC(=O)Nc2nc3ccc(C(F)(F)F)cc3s2)cc1` had an inhibition greater than 60%.
In data set [1], `O=C(Cc1ccccc1Cl)Nc1nc2ccc(C(F)(F)F)cc2s1` had an inhibition greater than 60%.
`Cc1ccc2nc(NC(=O)Cc3cccc(Cl)c3)sc2c1`: the permeability in data set [3] was determined as 5.6 ×10⁻⁶ cm/s. Further, the inhibition in data set [1] is greater than 60%.
Turning to `O=C(CCc1cccc(Cl)c1)Nc1nc2ccccc2s1`, in data set [1], the inhibition is greater than 60%.
Still for that read-out and setting: for `COc1ccccc1CC(=O)Nc1nc2ccc(Br)cc2s1` the value was greater than 60%; for `COc1ccccc1CC(=O)Nc1nc2ccc(OC(F)(F)F)cc2s1`, greater than 60%.
`COc1ccc2nc(NC(=O)Cc3cc(OC)c(OC)c(OC)c3)sc2c1`: the inhibition in data set [1] was greater than 60%. The IC50 in data set [2] was 1.12 µM.
Turning to `O=C(Cc1cccc(Cl)c1)Nc1nncs1`, in data set [1], the inhibition worked out at 20%.
Same read-out and setting: for `CCOc1ccc2nc(NC(=O)Cc3cccc(Cl)c3)sc2c1` the value was greater than 60%; for `CCOc1ccc2nc(NC(=O)Cc3ccccc3OC)sc2c1`, greater than 60%.
`O=C(Cc1cccc(Cl)c1)Nc1nc2ccc(OC(F)(F)F)cc2s1` returned an inhibition in data set [1] greater than 60%.

These data come from ChEMBL document CHEMBL3232937.
